Reference: patent US8946289B2, “Manassatin compounds and methods of making and using the same” (Duke University, priority 2008, dated 2015)
Like-named read-outs stand apart in the source and are kept apart here.

What was measured:
interleukin-2 (IL-2) = assay: Inhibition of interleukin-2 release in Jurkat T cells, ELISA; assay type: cell-based, human; conditions: Jurkat T cells stimulated with PMA and PHA, 18 h
Description: Human E6.1 Jurkat T cells were cultured in RPMI-1640 with 10% fetal bovine serum (FBS), 2 mM I-glutamine, and 1 mM Na-pyruvate. After serum starvation for 7 h, Jurkat cells were plated in 96 well culture plates at 1.25×10^5 cells/mL in RPMI-1640 (without phenol red) with 10% FBS. Cells were treated with phorbol 12-myristate 13-acetate (PMA, 1.25 ng/mL) and phytohemaglutinin (PHA, 0.25 μg/mL) to stimulate secretion of IL-2. Testing compound or DMSO vehicle was added to appropriate wells. […] Plates were then incubated for 18 h. Cell supernatants were collected (100 μL) and assayed for interleukin-2 (IL-2) by ELISA (Human IL-2 ELISA Kit, available from BD Biosciences, San Jose, Calif.). All test conditions were assayed in triplicate and verified with repeated experiments three times.

HIF-1 [1] = assay: ODD-Luc assay (luciferase reporter) for HIF-1 inhibitory activity; assay type: cell-based, mouse; conditions: read-out: HIF-1 inhibitory activity IC50; 4T1-ODD-Luc cells, 240 μM CoCl2, compounds 24 h
Description: The HIF-1 inhibitory of compound 1, 18, and the anti-diol diastereomer 22 were assessed with the ODD-Luc assay (Li, F.; Sonveaux, P.; Rabbani, Z. N.; Liu, S.; Yan, B.; Huang, Q.; Vujaskovic, Z.; Dewhirst, M. W.; Li, C. Y. Mol. Cell 2007, 26, 63-74, which is incorporated by reference). 4T1-ODD-Luc cells, stably transfected with the oxygen-dependent-degradation (ODD) domain of HIF-1α and a firefly luciferase reporter, were seeded in the 24-well plate at a density of 10^5 cells/well. After 16-hour incubation, cells were treated with 240 μM of Cobalt (II) Chloride (Sigma-Aldrich, St. Louis, Mo., USA) and serially diluted compounds for 24 h. To measure the luciferase signals, luciferin (150 mg/mL) was added and the plates were imaged using the Xenogen IVIS imaging system and associated Living Image software (Xenogen, Alameda, Calif.). Luciferase expression/activity was detected and quantified as relative light units (RLUs). Results are means±SD, n=3.
To determine HIF-1 inhibitory activity of 31 and 33, a luciferase-reporter based assay was used as a primary screen. […] Luciferase signals were detected and quantified as relative light units (RLUs).

HIF-1α = assay: Western blot of nuclear extracts, HIF-1α expression in MDA-MB-231 cells; assay type: cell-based, human
VEGF = assay: HIF-1 regulated VEGF secretion, ELISA; assay type: cell-based, mouse; conditions: 4T1 cells, hypoxia 0.5% O2, 24 h
Text: Vascular endothelial growth factor (VEGF) is a gene that is highly involved in tumor progression as a pro-angiogenic factor.

HIF-1 [2] = conditions: T47D cells, 10 μM 1,10-phenanthroline, 16 h; cited from earlier work
HIF-1α protein = assay: Western blot of nuclear extracts, HIF-1α expression in 4T1 cells; assay type: cell-based, mouse
[3] = system: 60 different human tumor cell lines; assay: NCI-60 DTP Human Tumor Cell Line Screen; assay type: cell-based
Description: The NCI-60 DTP Human Tumor Cell Line Screen utilized 60 different human tumor cell lines, representing leukemia, melanoma, and cancers of the lung, colon, brain, ovary, breast, prostate, and kidney. The screening was a two-stage process.
The human tumor cell lines of the cancer screening panel were grown in RPMI 1640 medium containing 5% fetal bovine serum and 2 mM L-glutamine. For a typical screening experiment, cells were inoculated into 96 well microtiter plates in 100 μL at plating densities ranging from 5,000 to 40,000 cells/well depending on the doubling time of individual cell lines.
After 24 h, two plates of each cell line were fixed in situ with TCA, to represent a measurement of the cell population for each cell line at the time of drug addition (Tz). […] At the time of drug addition, an aliquot of frozen concentrate was thawed and diluted to twice the desired final maximum test concentration with complete medium containing 50 μg/mL gentamicin. Additional four, 10-fold, or ½ log serial dilutions were made to provide a total of five drug concentrations plus control. Aliquots of 100 μL of these different drug dilutions were added to the appropriate microtiter wells already containing 100 μL of medium, resulting in the required final drug concentrations.
For adherent cells, the assay was terminated by the addition of cold TCA. Cells were fixed in situ by the gentle addition of 50 μL of cold 50% (w/v) TCA (final concentration, 10% TCA) and incubated for 60 minutes at 4° C. The supernatant was discarded, and the plates were washed five times with tap water and air dried. Sulforhodamine B (SRB) solution (100 μL) at 0.4% (w/v) in 1% acetic acid was added to each well, and plates were incubated for 10 minutes at room temperature. […] Bound stain was subsequently solubilized with 10 mM trizma base, and the absorbance was read on an automated plate reader at a wavelength of 515 nm. […] Using the seven absorbance measurements [time zero, (Tz), control growth, (C), and test growth in the presence of drug at the five concentration levels (Ti)], the percentage growth was calculated at each of the drug concentrations levels. Percentage growth inhibition was calculated as: [(Ti−Tz)/(C−Tz)]×100 for concentrations for which Ti>/=Tz [(Ti−Tz)/Tz]×100 for concentrations for which Ti<Tz.
Three dose response parameters were calculated for each experimental agent: GI50, TGI, and LC50. […] The drug concentration resulting in total growth inhibition (TGI) was calculated from Ti=Tz. […] Values were calculated for each of these three parameters if the level of activity was reached; however, if the effect was not reached or is exceeded, the value for that parameter was expressed as greater or less than the maximum or minimum concentration tested.

Athymic Nude mouse = assay: Non-tumored animal toxicity assay, single dose; assay type: in vivo; conditions: for Death Days / Survivors/Total at day 15: single dose
Description: All treatment was administered according to exact body weight. A single Athymic Nude mouse was given a single injection (IP) of 400 mg/kg; a second mouse received a dose of 200 mg/kg, and a third mouse received a single dose of 100 mg/kg. […] They were sacrificed if they lost more than 20% of their body weight or if there were other signs of significant toxicity. […] This process was repeated until a tolerated dose was found. This dose was then designated the maximum tolerated dose (MTD). The mice were allowed ad libitum feed and water. Injections were administered IP. Dose volumes were generally 0.1 mL/10 grams body weight but may be up to 0.2 mL/10 grams of body weight.

4T1 cells = conditions: 24 h, highest concentration examined 10 μM
Description: Like MTT (3-(4,5-d imethylthiazol-2-yl)-2,5-diphenyltetrazolium bromide, a tetrazole), MTS was reduced into a formazan product by living cells in the presence of an electron coupling reagent (phenazine methosulfate, PMS). The absorbance of the formazan was detected at 490 nm. […] Then cells were washed and incubated another three hours with cell medium containing MTS/PMS solution at 37° C. (21% O2, 5% CO2). Relative cell survival rate was determined on the O.D. values measured at 490 nm.

[4] = single dose 10 μM, leukemia, melanoma, and ovarian cancer

## COc1ccc([C@H](O)[C@@H](C)Oc2ccc(C3OC(c4ccc(O[C@H](C)[C@@H](O)c5ccc(OC)c(OC)c5)c(OC)c4)[C@H](C)[C@H]3C)cc2OC)cc1OC (stereo partly drawn) [Compound 22]
interleukin-2 (IL-2)
  release of interleukin-2: inhibited

## COc1ccc([C@@H](O)[C@@H](C)Oc2ccc(C3OC(c4ccc(O[C@H](C)[C@H](O)c5ccc(OC)c(OC)c5)c(OC)c4)[C@H](C)[C@H]3C)cc2OC)cc1OC (stereo partly drawn) [Compound 33]
HIF-1 [1]
  IC50: 47 nM

## O=c1ccc2c(OCCCCc3ccccc3)c3ccoc3cc2o1 [Psora4, reference compound]
interleukin-2 (IL-2)
  release of interleukin-2: inhibited

## COc1ccc([C@@H](O)[C@@H](C)Oc2ccc(C3OC(c4ccc(O[C@H](C)[C@H](O)c5ccc(OC)c(OC)c5)c(OC)c4)[C@H](C)[C@H]3C)cc2OC)cc1OC (stereo partly drawn) [manassantin A]
HIF-1α
  HIF-1α nuclear expression induced by CoCl2: inhibited
VEGF
  concentration significantly inhibiting VEGF induced by hypoxia: higher than 10 nM
HIF-1 [2]
  effect on iron chelator-induced HIF-1 activation: no significant effect
HIF-1α protein; 4T1 cells, 240 μM CoCl2 24 h, manassantin A 100 nM
  HIF-1α expression induced by CoCl2: inhibited
HIF-1α protein; 4T1 cells, hypoxia 0.5% O2, 24 h
  concentration significantly inhibiting hypoxia-induced nuclear expression of HIF-1α protein: higher than 10 nM
HIF-1α protein; at the concentration 100 nM
  expression of HIF-1: completely inhibited
Group 4, 200.0 mg/mL in 100% DMSO
  Solubility: soluble, no
Group 11, 25.0 mg/mL in 100% DMSO
  Solubility: soluble, no
Group 12, 3.125 mg/mL in 100% DMSO
  Solubility: soluble, no
Group 13, 3.125 mg/mL in 100% DMSO
  Solubility: soluble, no
Group 14, 3.125 mg/mL in 100% DMSO
  Solubility: soluble, no
interleukin-2 (IL-2)
  release of interleukin-2: inhibited
[3]; single dose 10 μM, 48 h, SRB
  tumor cell growth, trial 1: reduced the growth of all tumors tested
[3]; [4]
  lethality, trial 1: more than 50%
  lethality, trial 2: more than 50%
[3]; trial 2, 48 h, SRB
  tumor cell growth, trial 2: reduced the growth of all tumors tested
Athymic Nude mouse; Group 4, 100.00 mg/kg/dose IP
  Death Days: 0
  Survivors/Total at day 15: 0/1
Athymic Nude mouse; Group 11, 12.50 mg/kg/dose IP
  Death Days: 0
  Survivors/Total at day 15: 0/1
Athymic Nude mouse; Group 12, 1.56 mg/kg/dose IP
  Death Days: none
  Survivors/Total at day 15: 1/1
Athymic Nude mouse; Group 13, 3.13 mg/kg/dose IP
  Death Days: none
  Survivors/Total at day 15: 1/1
Athymic Nude mouse; Group 14, 6.25 mg/kg/dose IP
  Death Days: none
  Survivors/Total at day 15: 1/1
Athymic Nude mouse; levels of 6.25, 3.13, and 1.56 mg/kg/dose IP
  toxicity (in words): non-toxic
Athymic Nude mouse; levels of 12.50 and 100.00 mg/kg/dose IP
  toxicity (in words): resulted in death
Athymic Nude mouse; single IP injection of 400, 200 and 100 mg/kg, one mouse each
  toxicity outcome at first dose levels: all 3 mice had to be sacrificed
4T1 cells
  cell survival rate: ~70%
